SMILES strings stand for the structures.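 Cultured in 96-well plates, cells were exposed to test compound for 48 hours across five concentrations. Here, GI50 denotes the concentration required for 50% inhibition of growth. At the TGI there is no net growth.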

From PubChem BioAssay (NCI) come the findings set out here.

What all share (test): DTP human tumour cell line panel, 48 h
Experiment [1] relates to A549 NSCLC.
Experiment [2] concerns HL-60(TB) leukemia.
The test system of experiment [3] is HOP-62 NSCLC.
Experiment [4] deals with HOP-92 NSCLC.
Experiment [5] relates to OVCAR-3 ovarian.
Experiment [6] deals with RPMI-8226 leukemia.
Experiment [7] relates to SK-MEL-2 melanoma.
Experiment [8] relates to SK-OV-3 ovarian.
Experiment [9] relates to TK-10 renal.
The subject of experiment [10] is U251 CNS.

`COC(=O)C1=C(O)C(O)=C(C(=O)OC)C1`: the TGI in experiment [1], in experiment [2], in experiment [3], in experiment [4], in experiment [5] and in [6] was greater than 100 µM each time. For the same compound, the TGI in experiment [7], in experiment [8], in experiment [9] and in [10] was greater than 100 µM in each case.

On to `COc1ccc2ccc([Se]c3ccc4ccc(OC)cc4c3)cc2c1`, for which the TGI in experiment [1], in experiment [2], in experiment [3], in experiment [4], in experiment [5] and in experiment [6] was greater than 100 µM each time. The TGI is greater than 100 µM in experiment [7], greater than 100 µM in experiment [8], greater than 100 µM in [9] and 99.2 µM in experiment [10].

For the compound `COc1ccc(/C=C2/C[N+](C)(C)C/C(=C/c3ccc(OC)cc3)C2=O)cc1`, the TGI in experiment [1] is greater than 100 µM; in experiment [2] it was 44.4 µM; in experiment [3], greater than 100 µM; in experiment [4], greater than 100 µM; in [5], 98.5 µM; in experiment [6] it was 31.1 µM. Further, the TGI in experiment [7] is 71.7 µM; in experiment [8], greater than 100 µM; in experiment [9], greater than 100 µM; in experiment [10] it was greater than 63.9 µM.

Take `CC1=Cc2cc3[n-]c(cc4nc(cc5[n-]c(cc1n2)cc5C)C(C)=C4CCC(=O)O)c(CCC(=O)O)c3C.[Pd+2]`: the GI50 in experiment [1] was 32.1 µM; in [2] it was 7.21 µM; in experiment [3], 17.7 µM; in experiment [5], 7.51 µM; in experiment [6], 17300 nM; in experiment [7], 18.7 µM. Further, the GI50 is 11.5 µM in [8], 24.9 µM in experiment [9] and 2.56 µM in experiment [10]. Further, the total growth inhibition concentration (TGI) in experiment [1] was 54.7 µM; in experiment [2], 14.2 µM; in experiment [3] it was 34.3 µM; in [4], greater than 23.8 µM; in experiment [5], 27.1 µM; in [6], 36.9 µM. Moreover, the TGI in [7] turned out to be 44 µM; in experiment [8], 30.1 µM; in experiment [9] it was 52.9 µM; in experiment [10], 8.24 µM.

Regarding `Cc1cc(C)nc(Nc2nc3ccc([N+](=O)[O-])cc3[nH]2)n1`, the TGI in experiment [1], in experiment [2], in experiment [3], in experiment [4], in experiment [5] and in experiment [6] was greater than 100 µM each time. For the same compound, the TGI in [7], in experiment [9] and in [10] was greater than 100 µM throughout.

In the case of `COc1nc(C)cc2c(=O)n(-c3ccccc3)n(CCCN3CCN(c4ccc(Cl)cc4)CC3)c(=O)c12`, the GI50 in experiment [1] was 21.2 µM; in experiment [2] it was greater than 50 µM; in experiment [3] it was 24.5 µM; in experiment [4], 10 µM; in [5], 24.6 µM; in experiment [6] it was greater than 50000 nM. In addition, the GI50 in experiment [7] is greater than 50 µM; in experiment [8], 32.8 µM; in [9] it was greater than 50 µM; in [10] it was 32.1 µM. The TGI is greater than 50 µM in experiment [1]; greater than 50 µM in [2]; greater than 50 µM in experiment [3]; 41.6 µM in experiment [4]; greater than 50 µM in [5]; greater than 50 µM in [6]. For the same compound, the TGI in [7], in experiment [8], in experiment [9] and in experiment [10] was greater than 50 µM in each case.

`C=C1CC[C@@H]2C(C)(C)CCC[C@@]2(C)[C@@H]1Cc1cc(O)ccc1O`: the TGI in experiment [1] is 23 µM; in experiment [2], 4.67 µM; in [3] it was 25.8 µM; in experiment [4], 10.6 µM; in [5], 18.5 µM; in [6] it was 15.9 µM. Besides, the TGI in experiment [7] is 6.39 µM; in experiment [8] it was 6.04 µM; in experiment [9] it was 8.77 µM; in experiment [10] it was 14.5 µM.

Take `S=C(Nc1ccc(Cl)cc1)Nc1ccc(-c2nc3ccccc3[nH]2)cc1`: the GI50 in [1] is 14.3 µM; in experiment [2] it was 7.26 µM; in experiment [3] it was 15 µM; in experiment [4], 1.53 µM; in experiment [5] it was 1.33 µM; in experiment [6], 2230 nM. Further, the figures for the GI50 in experiment [8], in experiment [9] and in [10] were 17.7 µM, 7.73 µM and 5.06 µM, respectively. The TGI in experiment [1] was greater than 54.3 µM; in experiment [2], greater than 66 µM; in experiment [3], 30 µM; in experiment [4] it was 12.3 µM; in experiment [6], greater than 21.2 µM; in [8], greater than 100 µM. In addition, the values for the TGI in experiment [9] and in experiment [10] were 36.1 µM and 18.1 µM, respectively.

Regarding `C[C@H]1CCC/C=C/[C@@H]2C[C@H](O)C[C@H]2[C@H](O)[C@@H](S(=O)CCN(C)C)CC(=O)O1` (some centres not stated), the GI50 was 0.178 µM in experiment [1]; 0.303 µM in [2]; 0.458 µM in experiment [3]; 4.99 µM in [4]; 0.115 µM in experiment [5]; 387 nM in experiment [6]. Moreover, the GI50 was 0.223 µM in [7], 0.295 µM in experiment [8], 0.468 µM in experiment [9] and 0.498 µM in experiment [10]. The TGI in [1] is greater than 100 µM; in experiment [2], greater than 100 µM; in experiment [3] it was greater than 63.4 µM; in experiment [4] it was greater than 100 µM; in experiment [8] it was greater than 67.6 µM; in experiment [9], greater than 100 µM. In experiment [10], this compound yielded a TGI greater than 100 µM.

In the case of `C=C(CN1CCc2ccccc2C1)c1ccc(C(=O)Nc2ccc(N)cc2)cc1`, the GI50 was 18.7 µM in experiment [1]; 7.07 µM in experiment [2]; 28.5 µM in experiment [3]; 0.0854 µM in experiment [4]; 12.7 µM in experiment [5]; 2500 nM in [6]. For the same compound, the GI50 in experiment [7] is 24.4 µM; in experiment [8], 19.5 µM; in [9], 26.3 µM; in experiment [10] it was 28.2 µM. The TGI is 52.5 µM in experiment [1]; 36.7 µM in experiment [2]; greater than 100 µM in experiment [3]; 12.7 µM in [4]; 48 µM in experiment [5]; 19 µM in [6]. The TGI in [7] was greater than 100 µM; in [8], 53.7 µM; in [9] it was greater than 100 µM; in experiment [10], greater than 100 µM.
